Source: patent US20230060422A1, “COMBINATION TREATMENT OF LIVER DISEASES USING INTEGRIN INHIBITORS” (NOVARTIS AG, priority 2019, published 2023)
Entries after “also recorded” stand apart in the source; their conditions may differ. Where two headings read alike, the source gives them in different places. Values belong to the molecule of their own block, whether it stands above or below them.

How the values were obtained:
[1] = tested on: CDAHFD NASH mouse model; assay: 10-week CDAHFD study, comparison with CWHM12; assay type: in vivo; conditions: 4 weeks treatment in 10-week CDAHFD study
Protocol: (§1) CDAHFD injury is a rodent model of NASH displaying liver fat accumulation, inflammation, and fibrosis (Matsumoto 2013). Three types of studies were performed: 1) prophylactic, Compound 1 in an abbreviated 3-week CDAHFD model; 2) therapeutic, Compound 1 for 6 weeks in the 11- to 12-week CDAHFD model; and 3) Compound 1 for 4 weeks in a 10-week CDAHFD model.
Although pan-αv inhibition with CWHM12 reduced pSMAD and OHP levels, selective αvβ1 inhibition was sufficient for antifibrotic activity.

[2] = target: T1, human integrin αVβ1 (Homo sapiens, UniProt P05556+P06756); assay: Solid phase integrin binding assay (TGFβ1 LAP binding)
Protocol: (§2) Microplates were coated with recombinant human integrin αVβ1 or αVβ6 (2 μg/mL) in PBS (100 μL/well 25° C., overnight). The coating solution was removed, washed with wash buffer (0.05% Tween 20; 0.5 mM MnCl2; in 1×TBS). The plate was blocked with 200 μL/well of Block Buffer (1% BSA; 5% sucrose; 0.5 mM MnCl2; in 1×TBS) at 37° C. for 2 h. Dilutions of Compound 1 and recombinant TGFβ1 LAP (0.67 μg/mL) in binding buffer (0.05% BSA; 2.5% sucrose; 0.5 mM MnCl2; in 1×TBS) were added. The plate was incubated for 2 hours at 25° C., washed, and incubated for 1 hour with Biotin-Anti-hLAP. Bound antibody was detected by peroxidase-conjugated streptavidin. The IC50 values for the testing compound were calculated by a four-parameter logistic regression.

[3] = target: T2, human integrin αvβ6 (Homo sapiens, UniProt P06756+P18564); assay: as above
Protocol: as §2

[4] = tested on: precision cut liver slices from cirrhotic NASH patient explants; assay: Profibrotic gene expression and fibrosis biomarkers in precision cut liver slices; assay type: cell-based, human; parameters: reduction of gene expression of collagen, type 1, alpha 1 (COL1A1) / reduction of the level of FBN-C in culture media / reduction of PRO-C1 in culture media / reduction of PRO-C3 in culture media / reduction of PRO-C4 in culture media: concentration or dose not given beside the values
Protocol: The ability of Compound 1 to inhibit the expression of profibrotic genes and decrease biomarkers of fibrosis was measured in precision cut liver slices generated using cirrhotic liver tissues from NASH patient explants and from rodent models of liver fibrosis and NASH.
Data are mean +/−standard deviation from the 5 cirrhotic NASH patients. DMSO was used as the solvent and utilized at a constant concentration (0.1%) across the different groups. […] was used as a positive control.

[5] = tested on: murine CCl4 model of liver fibrosis; assay: 3-week murine CCl4 model of liver fibrosis; assay type: in vivo, mice; conditions: all doses, dosed during the final week of injury
Protocol: Antifibrotic activity of Compound 1 was established in an abbreviated, 3-week, murine CCl4 model of liver fibrosis. CCl4 is a hepatotoxin that when injected into mice results in liver fibrosis (Constandinou 2005). Compound 1 was dosed during the final week of injury.

[6] = tested on: CDAHFD NASH mouse model; assay: Prophylactic abbreviated 3-week CDAHFD NASH model; assay type: in vivo; conditions: high dose
Protocol: as §1

[7] = tested on: CDAHFD NASH mouse model; assay: Therapeutic 11- to 12-week CDAHFD injury studies; assay type: in vivo
Protocol: as §1
Compound 1 was tested therapeutically in 11- to 12-week CDAHFD injury studies at medium, high and highest doses across 3 independent studies.

[8] = tested on: healthy male and female participants; assay: First-in-human single and multiple ascending dose study; assay type: in vivo; conditions: single and multiple (7 days) ascending doses, thus far
Protocol: Part A of the study was a first-in-human, randomized, double-blind, placebo-controlled, parallel-group, single ascending dose study of the safety, tolerability, and PK of Compound 1 in a maximum of […] healthy male and female (non-childbearing potential) participants. Forty participants will be enrolled in up to 5 sequential cohorts.
Part B of the study is on-going and was initiated after the first 2 cohorts in Part A of the study had been completed. The doses in Part B were determined from Part A of the study and were not higher than the highest dose that was administered in Part A of the study.
Part B of the study is a randomized, double-blind, placebo-controlled, parallel-group, multiple ascending dose study of the PK, PD, safety, and tolerability of Compound 1 administered for 7 days in a maximum of 40 healthy male and female (non-childbearing potential) participants.

[9] = target: T1, human integrin αVβ1; assay: ALPHASCREEN proximity-based integrin binding assay; parameters: 6xHis (on the heterodimer); conditions: read-out: Proximity-Based Assy IC50, αvβ1
Protocol: (§3) Compound 1 was tested for αVβ1 or αVβ6 integrin biochemical potency using the ALPHASCREEN® (Perkin Elmer, Waltham, Mass.) proximity-based assay (a bead-based, non-radioactive Amplified Luminescent Proximity Homogeneous Assay) as described previously (Ullman E F et al., Luminescent oxygen channeling immunoassay: Measurement of particle binding kinetics by chemiluminescence. Proc. Natl. Acad. Sci. USA, Vol. 91, pp. 5426-5430, June 1994). To gauge the potency of inhibitors of binding to human integrin αVβ1 or αvβ6, the inhibitor compound and the integrin were incubated together with recombinant TGFβ1 LAP and biotinylated anti-LAP antibody plus acceptor and donor beads, following the manufacturer's recommendations. The donor beads were coated with streptavidin. […] All incubations occurred at room temperatures in 50 mM Tris-HCl, pH 7.5, 0.1% BSA supplemented with 1 mM each CaCl2 and MgCl2. The order of reagent addition was as follows: 1. αVβ1 or αVβ6 integrin, test inhibitor Compound 1, LAP, biotinylated anti-LAP antibody and acceptor beads were all added together. 2. After 2 hours, donor beads were added. After another 30 min incubation, samples were read.

[10] = target: T2, human integrin αvβ6; assay: ALPHASCREEN proximity-based integrin binding assay; parameters: 6xHis (on the heterodimer); conditions: read-out: Proximity-Based Assy IC50, αvβ6
Protocol: as §3

[11] = tested on: Patients with histologically confirmed NASH (F1-F3) or phenotypic NASH; assay: Placebo-controlled, randomized Phase 2a study of licogliflozin, 12 weeks (NCT03205150); assay type: in vivo, human
Protocol: Method: Patients with histologically confirmed NASH (F1-F3) or phenotypic NASH (BMI≥27 kg/m^2 in non-Asians or ≥23 kg/m^2 in Asians, ALT≥50 (males) or ≥35 (females) and type 2 diabetes (T2DM)) received daily oral licogliflozin at 150 mg, 30 mg or placebo in a 2:2:1 ratio for 12 weeks (NCT03205150). The primary endpoint was the effect on ALT level after 12 weeks of treatment. Secondary endpoints include improvement in body weight, liver fat content and AST, amongst others. The study size was 110 of which 77 completed (placebo (n=18); licogliflozin 30 mg (n=25) and licogliflozin 150 mg (n=34)) and are included in the interim analysis.

[12] = tested on: healthy subjects, patients with T2DM, obese patients; conditions: cited from earlier work
[13] = did not achieve statistical significance
[14] = two days of treatment, slices from 5 cirrhotic NASH patients
[15] = all doses (medium, high, highest), therapeutic, 3 independent studies
[16] = 30 mg, 12 weeks, interim analysis
[17] = 150 mg, 12 weeks, interim analysis

T1 sequence (P06756 31-992 limits assumed): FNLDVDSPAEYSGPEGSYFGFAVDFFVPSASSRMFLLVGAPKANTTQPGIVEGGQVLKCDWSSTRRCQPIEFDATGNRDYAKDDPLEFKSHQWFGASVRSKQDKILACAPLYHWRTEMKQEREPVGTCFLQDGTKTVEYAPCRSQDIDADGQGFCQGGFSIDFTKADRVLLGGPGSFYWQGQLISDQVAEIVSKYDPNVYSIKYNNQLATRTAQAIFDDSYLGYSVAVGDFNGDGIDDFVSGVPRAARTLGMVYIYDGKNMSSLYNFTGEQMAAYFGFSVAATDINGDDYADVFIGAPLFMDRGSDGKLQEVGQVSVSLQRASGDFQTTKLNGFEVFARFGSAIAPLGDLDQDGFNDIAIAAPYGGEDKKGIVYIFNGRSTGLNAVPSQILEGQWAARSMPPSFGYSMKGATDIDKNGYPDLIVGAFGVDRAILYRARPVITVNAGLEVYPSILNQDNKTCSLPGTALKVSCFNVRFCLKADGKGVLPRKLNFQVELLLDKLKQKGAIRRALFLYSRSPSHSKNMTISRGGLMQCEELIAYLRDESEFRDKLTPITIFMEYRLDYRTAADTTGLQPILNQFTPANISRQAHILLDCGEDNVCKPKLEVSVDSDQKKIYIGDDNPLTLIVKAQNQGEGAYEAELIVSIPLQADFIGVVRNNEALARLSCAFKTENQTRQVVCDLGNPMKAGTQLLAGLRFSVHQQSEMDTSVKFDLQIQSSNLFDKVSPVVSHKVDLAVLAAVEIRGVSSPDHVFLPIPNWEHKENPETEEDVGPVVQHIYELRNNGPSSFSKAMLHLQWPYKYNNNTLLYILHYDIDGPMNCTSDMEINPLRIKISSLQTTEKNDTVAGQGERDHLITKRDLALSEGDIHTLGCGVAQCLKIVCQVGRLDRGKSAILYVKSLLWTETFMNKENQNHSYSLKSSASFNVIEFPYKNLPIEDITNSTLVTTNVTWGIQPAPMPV
T1 sequence (P05556 21-728 limits assumed): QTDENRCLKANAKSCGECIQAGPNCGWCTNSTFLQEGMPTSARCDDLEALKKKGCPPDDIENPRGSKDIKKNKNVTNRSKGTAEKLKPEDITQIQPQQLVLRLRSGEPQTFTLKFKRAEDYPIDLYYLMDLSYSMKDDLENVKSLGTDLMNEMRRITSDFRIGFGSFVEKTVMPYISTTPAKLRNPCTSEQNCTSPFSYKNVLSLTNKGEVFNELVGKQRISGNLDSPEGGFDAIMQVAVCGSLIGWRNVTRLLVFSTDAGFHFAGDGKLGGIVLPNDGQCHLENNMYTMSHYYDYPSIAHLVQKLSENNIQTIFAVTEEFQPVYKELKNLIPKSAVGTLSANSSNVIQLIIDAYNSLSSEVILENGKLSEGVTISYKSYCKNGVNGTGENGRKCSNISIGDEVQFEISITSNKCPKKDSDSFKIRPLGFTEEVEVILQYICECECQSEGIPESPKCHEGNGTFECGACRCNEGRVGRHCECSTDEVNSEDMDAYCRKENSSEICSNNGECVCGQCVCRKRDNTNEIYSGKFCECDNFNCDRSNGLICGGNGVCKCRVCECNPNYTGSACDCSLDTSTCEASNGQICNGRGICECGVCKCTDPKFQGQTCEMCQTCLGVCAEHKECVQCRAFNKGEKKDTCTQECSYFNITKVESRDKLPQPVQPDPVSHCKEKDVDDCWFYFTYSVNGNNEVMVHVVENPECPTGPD
T2 sequence (P06756 31-992 limits assumed): as the sequence (P06756 31-992 limits assumed) above
T2 sequence (P18564 22-707 limits assumed): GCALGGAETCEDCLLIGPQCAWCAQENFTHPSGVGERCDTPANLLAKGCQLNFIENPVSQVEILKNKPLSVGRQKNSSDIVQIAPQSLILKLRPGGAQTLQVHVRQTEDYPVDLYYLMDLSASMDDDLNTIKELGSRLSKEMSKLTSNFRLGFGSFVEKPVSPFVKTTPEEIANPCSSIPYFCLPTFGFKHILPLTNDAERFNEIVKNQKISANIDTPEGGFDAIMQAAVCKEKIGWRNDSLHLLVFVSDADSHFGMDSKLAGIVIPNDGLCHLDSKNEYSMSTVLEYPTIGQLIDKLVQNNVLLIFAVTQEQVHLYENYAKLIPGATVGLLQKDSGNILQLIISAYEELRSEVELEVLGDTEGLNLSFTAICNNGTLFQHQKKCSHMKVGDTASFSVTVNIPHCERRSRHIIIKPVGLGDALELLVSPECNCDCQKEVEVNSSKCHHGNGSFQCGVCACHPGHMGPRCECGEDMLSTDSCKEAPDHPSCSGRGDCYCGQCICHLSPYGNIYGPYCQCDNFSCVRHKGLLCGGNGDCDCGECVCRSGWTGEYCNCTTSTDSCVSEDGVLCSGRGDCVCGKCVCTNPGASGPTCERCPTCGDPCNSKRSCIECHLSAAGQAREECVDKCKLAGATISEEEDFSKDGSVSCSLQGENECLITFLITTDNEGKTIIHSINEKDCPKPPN

Compound: CC(C)(C)c1cc(Br)cc([C@H](CC(=O)O)NC(=O)CNC(=O)c2cc(O)cc(NC3=NCC(O)CN3)c2)c1 (stereo partly drawn) [CWHM12, (3S)—N-[3-hydroxy-5-[(1,4,5,6-tetrahydro-5-hydroxy-2-pyrimidinyl)amino]benzoyl] glycyl-3-[3-bromo-5-(1,1-dimethylethyl)phenyl]-β-alanine]
reduction of OHP concentrations [1]: 30% | reduction of pSMAD3 levels [1]: 61%

IC50 [2]: < 50 nM | IC50 [3]: < 50 nM | metalloproteinase inhibitor 1 (TIMP1) gene expression [4, 14]: reduced | IC50 [9]: 50 to 250 nM | IC50 [10]: < 50 nM
Compound: CC1(C(=O)N[C@@H](CCCCCCCc2ccc3c(n2)NCCC3)C(=O)O)CCOCC1 [Compound 1, (S)-2-(4-methyltetrahydro-2H-pyran-4-carboxamido)-9-(5,6,7,8-tetrahydro-1,8-naphthyridin-2-yl)nonanoic acid]
reduction of PRO-C1 in culture media [4, 13]: 34% | reduction of PRO-C3 in culture media [4, 13]: 16% | reduction of PRO-C4 in culture media [4, 13]: 15% | reduction of the level of FBN-C in culture media ([4]; significant): 26% | reduction of gene expression of collagen, type 1, alpha 1 (COL1A1) [4, 14]: 39% | Levels of phosphorylated SMAD3 (pSMAD3)/SMAD3 in the liver [5]: significantly reduced | hepatic Col1a1, Col1a2, and Col3a1 expression [5]: significant reduction; also recorded: significantly reduced | expression of Ehhadh ([6]; both studies): significantly elevated | gene expression of collagens ([6]; one of the two studies): Significantly reduced | decrease of pSMAD3 levels in the liver ([6]; prophylactic, 3-week CDAHFD): 19% | reduction of hepatic OHP concentrations ([6]; prophylactic, both studies): ~30% | reduction of hepatic OHP [7, 15]: up to 38% | reduction of pSMAD3 levels [7, 15]: up to 57% | Collagen gene expression (Col1a1 and Col3a1) ([7]; high and highest doses): significantly reduced | gene expression of profibrotic markers Ctgf, Mmp-2, and Timp1 ([7]; high and highest doses): significantly reduced | Gene expression of Acox1 and Ehhadh ([7]; mouse, in vivo): significantly increased | collagen area (histological analysis) ([7]; mouse, in vivo): significant reduction | composite fibrosis score (second harmonic generation imaging): quantity and quality of the collagen fibers ([7]; mouse, in vivo): significant reduction | reduction in OHP concentration ([7]; separate sentence of b235, dose not stated): 24% | reduction of OHP concentrations [1]: 24% | reduction of pSMAD3 levels [1]: 40% | tolerability in healthy volunteers [8]: well tolerated

Compound: CCc1ccc([C@@H]2O[C@H](CO)[C@@H](O)[C@H](O)[C@H]2O)cc1Cc1ccc2c(c1)OCCO2 [licogliflozin, (2S,3R,4R,5S,6R)-2-(3-((2,3-dihydrobenzo[b][1,4]dioxin-6-yl)methyl)-4-ethylphenyl)-6-(hydroxymethyl)tetrahydro-2H-pyran-3,4,5-triol]
Absolute reduction in liver fat [11, 16]: 2.71% | Diarrhea (most common adverse event), patients reporting [11, 16]: 40% | Placebo adjusted reduction in HbA1c (absolute change) [11, 16]: 0.81% | Relative reduction in liver fat content [11, 16]: 10% | patients achieving at least 5% absolute reduction in liver fat [11, 16]: 43.5% | proportion of patients with at least a 30% relative reduction in liver fat content [11, 16]: 39.5% | reduction in AST [11, 16]: 23% | reduction in GGT [11, 16]: 26% | placebo-adjusted reduction in GGT ([11]; 30 mg, Week 12, full analysis): 24% | placebo-adjusted reduction in serum ALT ([11]; 30 mg, Week 12, full analysis): 21% | placebo-adjusted reduction in serum AST ([11]; 30 mg, Week 12, full analysis): 21% | Absolute reduction in liver fat [11, 17]: 4.45% | Diarrhea (most common adverse event), patients reporting [11, 17]: 76.5% | Placebo adjusted reduction in HbA1c (absolute change) [11, 17]: 0.96% | Relative reduction in liver fat content [11, 17]: 22% | patients achieving at least 5% absolute reduction in liver fat [11, 17]: 63.3% | proportion of patients with at least a 30% relative reduction in liver fat content [11, 17]: 66.7% | reduction in AST [11, 17]: 30% | reduction in GGT [11, 17]: 32% | placebo-adjusted reduction in GGT ([11]; 150 mg, Week 12, full analysis): 36% | placebo-adjusted reduction in serum ALT ([11]; 150 mg, Week 12, full analysis): 32% | placebo-adjusted reduction in serum AST ([11]; 150 mg, Week 12, full analysis): 32% | safety and tolerability ([11]; 12 weeks of treatment): safe and tolerable | absolute and relative liver fat content ([11]; 12 weeks, full analysis): Dose-dependent decreases | HOMA-IR (insulin sensitivity) ([11]; Week 12, full analysis): improvements | HbA1c (glycemic control) ([11]; Week 12, full analysis): improvements | body weight compared with placebo ([11]; Week 12, full analysis): Statistically significant reductions | waist circumference compared with placebo ([11]; Week 12, full analysis): Statistically significant reductions | Placebo adjusted reduction in body weight ([11]; both doses (150 mg and 30 mg), 12 weeks, interim analysis): ~4% | weight loss in obese patients ([12]; 150 mg daily dose, 12 week treatment): ~6% | safety and tolerability ([12]; 150 mg once daily, twelve weeks, normoglycemic and dysglycemic subjects): generally safe and well tolerated | dose-limiting toxicity ([12]; 150 mg once daily, twelve weeks): diarrhea | safety and tolerability ([12]; healthy subjects and patients with T2DM): safe and tolerated | pharmacokinetic profile ([12]; human, in vivo): favorable pharmacokinetic profile | placebo-adjusted weight loss ([12]; over 2 weeks, healthy subjects and patients with T2DM): up to 3%
